Measurements published in ChEMBL document CHEMBL1201862, “PubChem BioAssay data set” (2004).
The source made the active and inactive calls. Rule as the data show it, for most assays here: active = IC50 of 10 µM or less and inactive = more.

Tests used:
Type in all cases: functional
[1] = bead-based luminescence quenchers, dual-tagged ARNT – biochemical, AlphaScreen, cherry-pick, artefact control for ARNT-TACC3 interaction inhibitor project, dose response (AID 651705);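 also: AlphaScreen bead proximity signal that flags compounds interfering with the detection technology; potency reflects signal decrease which marks the compound as an assay artifact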
[2] = target: Eukaryotic translation initiation factor 4E (Mus musculus, UniProt P63073); test: blockers of eIF4G binding by eIF4E – biochemical, TR-FRET, dose response (AID 855);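 also: potency for disrupting eIF4E binding to eIF4GI seen as loss of FRET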
[3] = target: T1, Melanin-concentrating hormone receptor 1 (Homo sapiens, UniProt Q99705); test: Late-stage fluorescence-based counterscreen for antagonists of the G-protein coupled receptor 7 (GPR7): cell-based dose response assay to identify antagonists of the melanin-concentrating hormone receptor 1 (MCHR1) Set 6.
[4] = target: T2, Neuropeptides B/W receptor type 1 (Homo sapiens, UniProt P48145); test: human NPBW1 receptor blockade, IC50 – cell-based, fluorescence, dose response, set 6, late-stage follow-up (AID 588583)
T2 sequence (P48145 whole entry): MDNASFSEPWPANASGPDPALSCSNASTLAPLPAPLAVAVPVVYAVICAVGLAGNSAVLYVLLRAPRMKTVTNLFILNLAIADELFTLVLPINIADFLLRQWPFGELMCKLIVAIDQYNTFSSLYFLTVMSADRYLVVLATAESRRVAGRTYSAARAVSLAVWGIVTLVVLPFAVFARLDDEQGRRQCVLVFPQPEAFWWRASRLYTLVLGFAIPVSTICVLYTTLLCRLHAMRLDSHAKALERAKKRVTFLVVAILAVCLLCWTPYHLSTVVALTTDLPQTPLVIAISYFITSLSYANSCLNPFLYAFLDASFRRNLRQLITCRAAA

[5] = target: Platelet-activating factor acetylhydrolase (Mus musculus, UniProt Q60963); test: Late stage assay provider results from the probe development effort to identify inhibitors of pPAFAH: fluorescence-based dose-response biochemical gel-based competitive Activity-Based Protein Profiling (ABPP) assay for SAR compounds.
[6] = target: T1, Melanin-concentrating hormone receptor 1; test: Late-stage fluorescence-based counterscreen for antagonists of the G-protein coupled receptor 7 (GPR7): cell-based dose response assay to identify antagonists of the melanin-concentrating hormone receptor 1 (MCHR1) Set 5.
[7] = target: T2, Neuropeptides B/W receptor type 1; test: human NPBW1 receptor blockade, IC50 – cell-based, fluorescence, dose response, set 5, late-stage follow-up (AID 588566)
[8] = target: Mitochondrial peptide methionine sulfoxide reductase (Bos taurus, UniProt P54149);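 also: absorbance read-out, biochemical high-throughput dose-response screen for MsrA inhibitors, confirmatory; recombinant bovine MsrA coupled to E. coli TrxB with NADPH and selenocystamine; potency is for inhibitors of MsrA activity on DMSO substrate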
Mitochondrial peptide methionine sulfoxide reductase, sequence (P54149 whole entry): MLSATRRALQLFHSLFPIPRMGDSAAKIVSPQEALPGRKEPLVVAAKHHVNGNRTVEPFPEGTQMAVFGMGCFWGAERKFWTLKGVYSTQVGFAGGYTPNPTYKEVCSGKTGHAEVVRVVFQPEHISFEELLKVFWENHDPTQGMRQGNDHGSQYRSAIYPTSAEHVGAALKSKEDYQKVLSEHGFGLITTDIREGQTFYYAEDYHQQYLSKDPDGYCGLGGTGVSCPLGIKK

T1 sequence (Q99705 whole entry): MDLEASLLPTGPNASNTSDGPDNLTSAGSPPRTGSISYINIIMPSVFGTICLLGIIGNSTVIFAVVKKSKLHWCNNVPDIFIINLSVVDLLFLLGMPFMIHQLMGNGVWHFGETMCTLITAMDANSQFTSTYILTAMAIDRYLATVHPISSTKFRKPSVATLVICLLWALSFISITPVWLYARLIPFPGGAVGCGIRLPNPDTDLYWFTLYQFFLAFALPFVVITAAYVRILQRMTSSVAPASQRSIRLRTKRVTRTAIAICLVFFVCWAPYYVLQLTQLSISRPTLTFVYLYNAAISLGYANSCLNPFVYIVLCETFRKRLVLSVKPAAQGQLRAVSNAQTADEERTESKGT
Platelet-activating factor acetylhydrolase, sequence (Q60963 whole entry): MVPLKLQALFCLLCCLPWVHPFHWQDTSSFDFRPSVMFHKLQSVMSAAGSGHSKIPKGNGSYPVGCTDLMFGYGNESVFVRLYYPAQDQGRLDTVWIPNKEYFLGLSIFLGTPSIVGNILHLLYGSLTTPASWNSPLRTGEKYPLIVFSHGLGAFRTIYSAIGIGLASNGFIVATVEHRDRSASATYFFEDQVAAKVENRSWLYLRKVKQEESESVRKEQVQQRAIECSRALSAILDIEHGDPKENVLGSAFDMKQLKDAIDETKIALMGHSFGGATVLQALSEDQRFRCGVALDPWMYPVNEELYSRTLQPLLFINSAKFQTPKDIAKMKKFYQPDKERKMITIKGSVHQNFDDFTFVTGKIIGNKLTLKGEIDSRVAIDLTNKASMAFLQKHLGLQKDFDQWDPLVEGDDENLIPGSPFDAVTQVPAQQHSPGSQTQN
Eukaryotic translation initiation factor 4E, sequence (P63073 whole entry): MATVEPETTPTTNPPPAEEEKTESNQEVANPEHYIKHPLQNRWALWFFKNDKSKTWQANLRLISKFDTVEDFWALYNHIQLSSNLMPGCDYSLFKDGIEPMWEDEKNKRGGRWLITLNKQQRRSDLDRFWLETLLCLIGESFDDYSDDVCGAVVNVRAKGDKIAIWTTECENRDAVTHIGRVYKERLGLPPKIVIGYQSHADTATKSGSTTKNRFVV

With CC(C)(C)C1=Nn2c(nnc2-c2ccccn2)SC1 the AC50 [1] was 107 µM (active) and the IC50 [2] was > 64 µM (inactive).
In the case of N#CC(C#N)c1c(Cl)cnn(Cc2cccc3ccccc23)c1=O, the IC50 [3] is reported as 17.4 µM (inactive) and the IC50 [4] is reported as 17.4 µM (inactive).
In the case of N#CC(c1ccccn1)c1c(Cl)cnn(Cc2cccc3ccccc23)c1=O (stereo not given), the IC50 [3] is reported as 0.564 µM (active) and the IC50 [4] is reported as 0.564 µM (active).
With Cc1cc(N2CCN(C(=O)Oc3ccc(-n4cccc4)cc3)CC2)c2ccccc2n1 the IC50 [5] was 0.057 µM (active).
For N#CC(c1ccsc1)c1c(Cl)cnn(Cc2cccc3ccccc23)c1=O (stereo not given), the IC50 [6] was 0.794 µM (active) and the IC50 [7] was 0.325 µM (active).
For C/C(=N\Nc1ccc(S(N)(=O)=O)cc1[N+](=O)[O-])c1cccnc1, the IC50 [8] was 155 µM (inactive).
